This assay relates to systolischer Blutdruck. In words: Blood pressure lowering in conscious spontaneously hypertensive rats (tail cuff). The format is in vivo, SH-Ratten. The note with it: 25 mg/kg oral once daily for 5 days; difference from baseline, 2 hours after dosing. The text has this: Blutdrucksenkung bei wachen hypertonen Ratten
Die blutdrucksenkende Wirkung wird bei wachen Ratten mit spontaner Hyperonie (SH) ermittelt. Eingesetzt werden dazu männliche SH-Ratten (250 - 300 g, 12 - 16 Wochen alt) des Wistar-Okamoto-Stammes aus eigener Züchtung. Vor der Blutdruckmessung werden die Ratten 10 Minuten bei 37'C in einer Wärmekammer aufgewärmt. Der systolische Blutdruck wird bei den wachen Ratten mittels Schwanzmanschetten-Methode gemessen, wobei ein piezoelektrischer Kristall zur Anzeige des Druckpulses, ein aneroides Manometer zur Druckmessung und ein Kardioskop (BPL-India) zur Anzeige des Verschwindens und/oder Auftretens des Druckpulses verwendet wird.
Die zu testenden erfindungsgemäßen Verbindungen werden unter Verwendung von stöchiometrischer 0,1 n HCl-Lösung bzw. die Salze direkt in Wasser gelöst und in dieser Form den SH-Ratten 5 Tage lang einmal täglich in einer Dosierung von 25 mg/kg oral verabreicht. Eine Gruppe dient als Kontrolle und erhält das Vehikel. Der systolische Blutdruck wird vor der ersten Verabreichung des Medikamentes und 2 Stunden danach registriert. Eine Senkung des systolischen Blutdruckes ist die Differenz zwischen dem Blutdruck nach der Behandlung und dem Ausgangswert.

With `C=CC1(C)CC(=O)C2(O)C(C)(O1)C(O)C(OC(=O)CN1CCCCC1)C1C(C)(C)CCC(O)C12C` (centres unmarked), the “Senkung des systolischen Blutdruckes” value was 14.
Next, `C=CC1(C)CC(=O)C2(O)C(C)(O1)C(OC(=O)CN1CCCCC1)C(O)C1C(C)(C)CCC(O)C12C` (centres unmarked): 35.

Source of the values: patent publication EP0217372A2, “Polyoxygenated labdane derivatives, process for their preparation and their use as medicaments” (HOECHST AKTIENGESELLSCHAFT, priority 1985, dated 1987).
